What was measured:
Assay in all cases: relative viability (nuclei count vs DMSO), 5 days (fraction); higher = more cells survive
[1] = compound: CCn1c(-c2nonc2N)nc2cnc(Oc3cccc(NC(=O)c4ccc(OCCN5CCOCC5)cc4)c3)cc21 + O=C(CCCCCCC(=O)Nc1ccccc1)NO [Vorinostat] (partner 1 µM)
Method in brief: (§1)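 Lung cancer cell lines in 1536-well plates got either a single drug or a fixed anchor-drug dose together with five library-drug doses (not always all listed) in √10 steps, by pin tool, on the day after seeding. Nuclei were counted after 5 days, and relative viability is the treated-to-vehicle ratio of nuclei counts. Values are medians of duplicate plates.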

Mirin + Alpelisib = compound: N=C1NC(=O)/C(=C/c2ccc(O)cc2)S1 [Mirin] + Cc1nc(NC(=O)N2CCC[C@H]2C(N)=O)sc1-c1ccnc(C(C)(C)C(F)(F)F)c1 [Alpelisib] (partner 2 µM)
Method in brief: as §1

Mirin + Tozasertib = compound: N=C1NC(=O)/C(=C/c2ccc(O)cc2)S1 [Mirin] + Cc1cc(Nc2cc(N3CCN(C)CC3)nc(Sc3ccc(NC(=O)C4CC4)cc3)n2)n[nH]1 [Tozasertib] (partner 0.1 µM)
Method in brief: as §1

[2] = compound: CCC1=CN=CN=C1N2CCN(CC2)CC3=NC4=C(N3)C=C(C=C4)C(F)(F)F + CC(C)C[C@H](NC(=O)[C@H](Cc1ccccc1)NC(=O)c1cnccn1)B(O)O [Bortezomib] (partner 0.002 µM)
Method in brief: as §1

Work on UMC-11 yielded a relative viability ([1]; first compound 0.04 µM) of 0.427, a relative viability ([1]; first compound 0.1265 µM) of 0.478 and a relative viability ([1]; first compound 0.4 µM) of 0.437. The relative viability ([1]; first compound 1.265 µM) was 0.152, the relative viability ([1]; first compound 4 µM) was 0.158 and the relative viability (Mirin + Alpelisib; first compound 0.25 µM) was 1.03. The relative viability (Mirin + Alpelisib; first compound 0.7906 µM) was 0.958, the relative viability (Mirin + Alpelisib; first compound 2.5 µM) was 0.96 and the relative viability (Mirin + Alpelisib; first compound 7.906 µM) was 0.935. The relative viability (Mirin + Alpelisib; first compound 25 µM) was 0.572, the relative viability (Mirin + Tozasertib; first compound 0.25 µM) was 0.196 and the relative viability (Mirin + Tozasertib; first compound 2.5 µM) was 0.203. It also gave a relative viability (Mirin + Tozasertib; first compound 7.906 µM) of 0.181, a relative viability (Mirin + Tozasertib; first compound 25 µM) of 0.189 and a relative viability ([2]; first compound 0.04 µM) of 0.703. It also gave a relative viability ([2]; first compound 0.1265 µM) of 0.672, a relative viability ([2]; first compound 0.4 µM) of 0.554 and a relative viability ([2]; first compound 1.265 µM) of 0.701. For the same cell line, the relative viability ([2]; first compound 4 µM) was 0.707.
